Data set [1] deals with WI-38 lung cells. As to the kind of experiment: Apoptosis in normal cells. The note with it: normal cell line.
The test system of data set [2] is STAT3 DNA-binding activity in MDA-MB-231 cells. As to the kind of experiment: STAT3 DNA-binding activity in nuclear extracts. The note with it: 24 hours treatment.
For data set [3], the system named is STAT3 transcriptional activity in MDA-MB-231 cells. The data set can be described thus: STAT3-dependent transcriptional luciferase assay. The note with it: 24 hours of treatment.
In data set [4] the test system is BdsMC bladder cells. The data set can be described thus: Apoptosis in normal cells. The note with it: normal cell line.
The test system of data set [5] is HPDE cells. The data set can be described thus: Western blot of cleaved caspase-3 in normal cells. The note with it: concentrations as high as 10 µM; normal pancreatic cells.
Data set [6] has as its system MDA-MB-231 cells. The data set can be described thus: Laminin-based cell invasion assay. The note with it: 1 µM, 24 hours.
For data set [7], the system named is STAT3 DNA-binding activity in PANC-1 cells. The data set can be described thus: STAT3 DNA-binding activity in nuclear extracts. The note with it: 24 hours treatment.
In data set [8] the test system is P-STAT3 in MDA-MB-231 breast cancer cells. As to the kind of experiment: Western blot of P-STAT3. The note with it: 2.5 and 5 µM, 24 hours.
Data set [9] deals with MDA-MB-231 cells. The data set can be described thus: Soft agar colony formation assay. The note with it: MDA-MB-231, soft agar, two weeks.
Data set [10] relates to MDA-MB-231 breast cancer cell line. The data set can be described thus: Combinatorial effect with doxorubicin on cell viability. The note with it: 100–400 nM doxorubicin with 5000 nM compound; p < 0.05 over either agent alone.
Data set [11] has as its system P-STAT3 in PANC-1 pancreatic cancer cells. The data set can be described thus: Western blot of P-STAT3. The note with it: 2.5 and 5 µM, 24 hours.
In data set [12] the test system is JAK2. The data set can be described thus: HTScan JAK2 Kinase Assay. It counts as biochemical, human. The note with it: 5 µM; over a DMSO control; P<0.05.
In data set [13] the test system is STAT1 DNA-binding activity in MDA-MB-231 cells. As to the kind of experiment: STAT1 DNA-binding activity in nuclear extracts. The note with it: 24 hours treatment.
Data set [14] deals with HMEC cells. The data set can be described thus: Western blot of cleaved caspase-3 in normal cells. The note with it: concentrations as high as 10 µM; normal breast cells.

In the case of `COc1ccc(/C=C/C(=O)C(C)(C)C(=O)/C=C/c2ccc(OC)c(OC)c2)cc1OC` [FLLL31], the apoptosis entry in data set [1] and in data set [4] was “no evidence of apoptosis” each time. Moreover, the “STAT3 DNA-binding activity” value in data set [2] and in data set [7] was “dropped sharply” in each case. Also, the luciferase activity result in data set [3] is given as “reduced luciferase activity in a dose-dependent fashion”. Moreover, the caspase-3 cleavage entry in data set [5] and in data set [14] was “unable to induce caspase-3 cleavage” each time. Also, the invasive capacity entry in data set [6] is on record as “substantially reduced”. In addition, the “levels of P-STAT3” value in data set [8] and in data set [11] was “effectively reduced” throughout. Also, the “reduction of overall colony numbers over that of curcumin” value in data set [9] is recorded as “approximately 40%”. Besides, the “combination effect with doxorubicin on cell viability” value in data set [10] is on record as “synergistic”. Further, the “reduction in JAK2 kinase activity” value in data set [12] is recorded as “approximately 60%”. Besides, the “STAT1 DNA-binding activity” value in data set [13] is given as “slightly enhanced”.
On to `COc1cc(/C=C/C(=O)CC(=O)/C=C/c2ccc(O)c(OC)c2)ccc1O` [curcumin, reference compound], for which the invasive capacity result in data set [6] is “comparatively minimal impact”.

For the origin of these results see paper PMC2843552 (Cancer research, 2010).
